We go through nine molecules from ChEMBL document CHEMBL1121980, “beta-adrenergic blocking agents. 24. Heterocyclic substituted 1-(aryloxy)-3-[[(amido)alkyl]amino]propan-2-ols” (1982).

What all share (assay type): functional
For assay [1], the species on record is Felis catus. The experiment in a line: The compound was evaluated for inhibition of depressor response. On the set-up: concentration or dose not given beside the values.
Assay [2] relates to Felis catus. The assay is described as follows: In vivo beta adrenoceptor blocking potency was determined by inhibition of tachycardia in cat.
The species named for assay [3] is Felis catus. The assay is described as follows: The compound was evaluated for inhibition of depressor response.

In assay [1], `CC(C)NCC(O)COc1cccc2ccccc12` (configuration not stated) [PROPRANOLOL] displayed an Inhibition of 85%. In assay [2], this molecule gave a median effective dose (ED50) of 0.062 mg/kg.

With `O=C(NCCNCC(O)COc1cccc2c1OCCO2)c1cccs1` (configuration not stated), the Inhibition in assay [1] is 40%.

Molecule `O=C(NCCNCC(O)COc1cccc2c1OCCO2)Nc1ccccc1` (configuration not stated) had an Inhibition in assay [1] of 0%. This molecule displayed a 50% effective dose (ED50) in assay [2] of 0.111 mg/kg.

In assay [1], `O=C(NCCNCC(O)COc1ccccc1)c1cccs1` (configuration not stated) showed an Inhibition of 28%. For the same molecule, the ED50 in assay [2] turned out to be 0.104 mg/kg.

As to `NC(=O)c1ccccc1OCC(O)CNCCNC(=O)c1cccs1` (configuration not stated), the Inhibition in assay [1] came to 0%. In assay [2], this molecule gave an ED50 of 0.461 mg/kg.

For the molecule `CC(=O)Nc1ccc(OCC(O)CNC(C)C)cc1` (configuration not stated) [PRACTOLOL], the Inhibition in assay [3] is reported as 8%. Besides, in assay [2], the ED50 turned out to be 0.167 mg/kg.

In assay [1], `N#Cc1ccccc1OCC(O)CNCCNC(=O)Cc1csc(-c2ccc(Cl)cc2)n1` (configuration not stated) yielded an Inhibition of 0%. This molecule returned a median effective dose (ED50) in assay [2] of 0.087 mg/kg.

As to `N#Cc1ccccc1OCC(O)CNCCNC(=O)c1ccco1` (configuration not stated), the Inhibition in assay [1] was found to be 28%. The molecule also gave an ED50 in assay [2] of 0.272 mg/kg.

Molecule `N#Cc1ccccc1OCC(O)CNCCNC(=O)Cc1cc2ccccc2[nH]1` (configuration not stated) showed an Inhibition in assay [1] of 6%. Besides, the 50% effect level in assay [2] (ED50) was put at a dose of 0.049 mg/kg.

As usually defined, the Inhibition is the percentage by which the read-out fell short of the control. The term ED50 denotes the midpoint of the dose-response relation.
